Data from the ASAP Discovery antiviral challenge data (2025).
Values after ≈ are worked out from the molar mass of the structure shown. Values joined by “and” are separate entries in the source; they are usually repeats but may differ in a detail not shown here. Equal entries are not always repeated.

Experiments:
[1] = human; liver_microsomes
[2] = mouse; liver_microsomes
[3] = not given; remark: listed apart in the source
[4] = mdck_mdr1

Row | SMILES | microsomal CLint [1] | microsomal CLint [2] | solubility kinetic | logD [3] | Papp [4]
1 | CC(C)(C)[C@H](Nc1ncnc2[nH]c(-c3cnn(CC(N)=O)c3)cc12)c1ccc2c(c1)OCCO2 (single isomer, unassigned) | 153 µL/min/mg and 100 µL/min/mg | 44 µL/min/mg and 39 µL/min/mg | 89 µM and 104 µM | 3 and 3.1 | 0.364 ×10⁻⁶ cm/s and 1.01 ×10⁻⁶ cm/s
2 | CC(C)[C@H](Nc1ncnc2[nH]c(-c3cnn(C)c3)cc12)c1ccc2c(c1)S(=O)(=O)CCC2 (single isomer, unassigned) | 169 µL/min/mg and 405 µL/min/mg | 255 µL/min/mg and 140 µL/min/mg | 111 µM (≈ 50 µg/mL) | 2.9 and 3.2 | 1.18 ×10⁻⁶ cm/s and 1.5 ×10⁻⁶ cm/s
3 | CC(C)[C@H](Nc1ncnc2[nH]c(-c3cnn(C)c3C#N)cc12)c1ccc2c(n1)NC(=O)CO2 (single isomer, unassigned) | 137 µL/min/mg and 51 µL/min/mg | 131 µL/min/mg and 189 µL/min/mg | 28 µM (≈ 12.4 µg/mL) | 3.7 | 9.35 ×10⁻⁶ cm/s and 9.64 ×10⁻⁶ cm/s
4 | CC(C)[C@H](Nc1ncnc2[nH]c(-c3cnn(CC(N)=O)c3)cc12)c1ccc2c(c1)S(=O)(=O)CCC2 (single isomer, unassigned) | 240 µL/min/mg and 115 µL/min/mg | 39 µL/min/mg and 96 µL/min/mg | 338 µM and 335 µM | 2.1 and 2 | 1.98 ×10⁻⁶ cm/s and 0.719 ×10⁻⁶ cm/s
5 | CC(C)[C@H](Nc1ncnc2[nH]c(-c3cnn(CC(N)=O)c3)cc12)c1ccc2c(n1)OCCO2 (single isomer, unassigned) | 12 µL/min/mg and 18 µL/min/mg | 5 µL/min/mg and 9 µL/min/mg | 377 µM and 395 µM | 2.3 and 2.4 | 1.27 ×10⁻⁶ cm/s and 0.47 ×10⁻⁶ cm/s
6 | CNC(=O)c1cc2c(N[C@H](c3ccc4c(c3)NC(=O)CO4)C(C)C)ncnc2[nH]1 (single isomer, unassigned) | 175 µL/min/mg | 33 µL/min/mg | 380 µM (≈ 150 µg/mL) | 2.9 | 1.21 ×10⁻⁶ cm/s
7 | COCCNC(=O)[C@H](Nc1ccc2c(c1)CNC2)c1cc(Cl)cc(C2CC2)c1 (single isomer, unassigned) | 19.7 µL/min/mg | 11.7 µL/min/mg | 320 µM (≈ 128 µg/mL) | 1 | 1.4 ×10⁻⁶ cm/s
8 | COc1ccc([C@H](Cc2nnn[nH]2)NC(=O)c2ncnc3[nH]ccc23)cc1 (single isomer, unassigned) | 2 µL/min/mg | 7 µL/min/mg | 367 µM (≈ 134 µg/mL) | -0.5 | 1.07 ×10⁻⁶ cm/s
9 | C[C@H](C(=O)O)[C@@H](NC(=O)c1ncnc2[nH]ccc12)c1ccc(Br)cc1 (single isomer, unassigned) | 3 µL/min/mg | 4 µL/min/mg | 358 µM (≈ 144 µg/mL) | 0.6 | 0.682 ×10⁻⁶ cm/s
10 | Cc1nn(C)cc1-c1cc2c(N[C@H](c3ccc4c(c3)S(=O)(=O)CCC4)C(C)C)ncnc2[nH]1 (single isomer, unassigned) | 273 µL/min/mg and 251 µL/min/mg | 202 µL/min/mg and 390 µL/min/mg | 65 µM and 63 µM | 3.1 and 3.4 | 4.36 ×10⁻⁶ cm/s and 3.69 ×10⁻⁶ cm/s
11 | Cn1ncc(-c2cc3c(N[C@H](c4ccc5c(n4)OCCO5)C(C)(C)C)ncnc3[nH]2)c1C#N (single isomer, unassigned) | 283 µL/min/mg | 226 µL/min/mg | 24 µM (≈ 10.7 µg/mL) | 3.3 | 14 ×10⁻⁶ cm/s
